Measurements published in ChEMBL document CHEMBL1697781, “Assessment of the health effects of chemicals in humans: II. Construction of an adverse effects database for QSAR modeling” (Curr Drug Discov Technol, 2004).

Key:
Conditions in all cases: human; call rule not given here
Hepatotoxicity [1] = test: FDA HLAED, serum glutamic pyruvic transaminase (SGPT) increase
Hepatotoxicity [2] = test: FDA HLAED, liver enzyme composite activity
Hepatotoxicity [3] = test: FDA HLAED, lactate dehydrogenase (LDH) increase
Hepatotoxicity [4] = test: FDA HLAED, serum glutamic oxaloacetic transaminase (SGOT) increase
Hepatotoxicity [5] = test: FDA HLAED, gamma-glutamyl transferase (GGT) increase
Hepatotoxicity [6] = test: FDA HLAED, alkaline phosphatase increase
Throughout, for GGT Increase - Index Value: reference of the scale not given here.
Throughout, for LDH Increase - Index Value: reference of the scale not given here.

Structure (SMILES) | SGPT Increase - Activity Score (Hepatotoxicity [1]) | SGPT Increase - Index Value (Hepatotoxicity [1]) | SGPT Increase - Number of Reports (Hepatotoxicity [1]) | Composite Activity - Active (Hepatotoxicity [2]) | Composite Activity - Marginal (Hepatotoxicity [2]) | Composite Activity - Score (Hepatotoxicity [2]) | LDH Increase - Activity Score (Hepatotoxicity [3]) | LDH Increase - Index Value (Hepatotoxicity [3]) | LDH Increase - Number of Reports (Hepatotoxicity [3]) | SGOT Increase - Activity Score (Hepatotoxicity [4]) | SGOT Increase - Index Value (Hepatotoxicity [4]) | SGOT Increase - Number of Reports (Hepatotoxicity [4]) | GGT Increase - Activity Score (Hepatotoxicity [5]) | GGT Increase - Index Value (Hepatotoxicity [5]) | GGT Increase - Number of Reports (Hepatotoxicity [5]) | Alkaline Phosphatase Increase - Activity Score (Hepatotoxicity [6]) | Alkaline Phosphatase Increase - Index Value (Hepatotoxicity [6]) | Alkaline Phosphatase Increase - Number of Reports (Hepatotoxicity [6]) | also measured
CN(C)CC/C=C1/c2ccccc2COc2ccc(CC(=O)O)cc21 [OLOPATADINE] | Inactive | 0 | < 4 | 0 | 0 | Inactive | Inactive | 0 | < 4 | Inactive | 0 | < 4 | Inactive | 0 | < 4 | Inactive | 0 | < 4 | 
O=C(O)c1cc(/N=N/c2ccc(O)c(C(=O)O)c2)ccc1O [OLSALAZINE] | Inactive | 1.5 | < 4 | 0 | 0 | Inactive | Inactive | 0.7 | < 4 | Inactive | 2.2 | < 4 | Inactive | 0 | < 4 | Inactive | 0.7 | < 4 | 
COc1ccc2[nH]c([S+]([O-])Cc3ncc(C)c(OC)c3C)nc2c1 (stereo unspecified) [OMEPRAZOLE] | Inactive | 0.9 | >= 4 | 0 | 0 | Inactive | Inactive | 0.5 | >= 4 | Inactive | 1.2 | >= 4 | Inactive | 0.8 | >= 4 | Inactive | 1.8 | >= 4 | 
Cc1nccn1CC1CCc2c(c3ccccc3n2C)C1=O (stereo unspecified) [ONDANSETRON] | Inactive | 1.3 | >= 4 | 0 | 0 | Inactive | Inactive | 0.9 | >= 4 | Inactive | 1.1 | >= 4 | Inactive | 0 | < 4 | Inactive | 0.5 | >= 4 | 
O=C(O)CCc1nc(-c2ccccc2)c(-c2ccccc2)o1 [OXAPROZIN] | Inactive | 0.8 | >= 4 | 0 | 0 | Inactive | Inactive | 0.4 | >= 4 | Inactive | 0.9 | >= 4 | Inactive | 0.4 | < 4 | Inactive | 0.2 | < 4 | 
Clc1ccc(CO/N=C(\Cn2ccnc2)c2ccc(Cl)cc2Cl)c(Cl)c1 [OXICONAZOLE] | Inactive | 0 | < 4 |  |  |  | Inactive | 0 | < 4 | Inactive | 0 | < 4 | Inactive | 0 | < 4 | Inactive | 0 | < 4 | Composite Activity - Active (Hepatotoxicity [2]; Liver): 0; Composite Activity - Marginal (Hepatotoxicity [2]; Liver): 0; Composite Activity - Score (Hepatotoxicity [2]; Liver): Inactive
C[N+](C)(C)CCO.Cn1c(=O)c2[n-]cnc2n(C)c1=O [OXTRIPHYLLINE] | Inactive | 0 | < 4 | 0 | 0 | Inactive | Inactive | 0 | < 4 | Inactive | 0 | < 4 | Inactive | 0 | < 4 | Inactive | 0 | < 4 | 
CC(=O)O[C@H]1C(=O)[C@@]2(C)[C@H]([C@H](OC(=O)c3ccccc3)[C@]3(O)C[C@H](OC(=O)[C@H](O)[C@@H](NC(=O)c4ccccc4)c4ccccc4)C(C)=C1C3(C)C)[C@]1(OC(C)=O)CO[C@@H]1C[C@@H]2O [PACLITAXEL] | Inactive | 0.8 | < 4 |  |  |  | Inactive | 2.2 | >= 4 | Inactive | 2.5 | >= 4 | Inactive | 1.2 | >= 4 | Marginally Active | 3.7 | >= 4 | Composite Activity - Active (Hepatotoxicity [2]; Liver): 0; Composite Activity - Marginal (Hepatotoxicity [2]; Liver): 1; Composite Activity - Score (Hepatotoxicity [2]; Liver): Inactive
NCCC(O)(P(=O)(O)O)P(=O)(O)O [PAMIDRONIC ACID] | Inactive | 4.1 | < 4 | 2 | 0 | Active | Inactive | 4.1 | < 4 | Inactive | 4.1 | < 4 | Active | 12.4 | < 4 | Active | 16.6 | >= 4 | 
Fc1ccc([C@@H]2CCNC[C@H]2COc2ccc3c(c2)OCO3)cc1 [PAROXETINE] | Inactive | 1 | >= 4 | 0 | 0 | Inactive | Inactive | 0.4 | >= 4 | Inactive | 1.2 | >= 4 | Inactive | 0.5 | >= 4 | Inactive | 0.7 | >= 4 | 
CC(C)(C)NC[C@H](O)COc1ccccc1C1CCCC1 [PENBUTOLOL] | Inactive | 0 | < 4 | 0 | 0 | Inactive | Inactive | 0 | < 4 | Inactive | 0 | < 4 | Inactive | 0 | < 4 | Inactive | 0 | < 4 | 
Nc1nc2c(ncn2CCC(CO)CO)c(=O)[nH]1 [PENCICLOVIR] | Inactive | 0 | < 4 | 0 | 0 | Inactive | Inactive | 0 | < 4 | Inactive | 0 | < 4 | Inactive | 0 | < 4 | Inactive | 0 | < 4 | 
